Columns and labels:
[1] = system: gastric mucosa; test: Effect on gastric mucosa (2) (oral administration); assay type: in vivo, rat (Sprague-Dawley strain); settings: rats, 4 hours
Description: 4 Hours after the administration, the rat was sacrificed with ether, and its stomach was removed. The stomach was treated with 5% formalin for 3 minutes, and gastric mucosa was observed under a stereoscopic microscope. When gastric lesion in the mucosa was found, the number of the lesion in the mucosa was counted.

[2] = system: rats; test: Acute toxicity (2) (oral administration); assay type: in vivo; settings: rats
Description: (§1) After administration of the compound, the number of rats that died during 7 days was observed, and LD50 value was calculated on the basis of the mortality.

[3] = Acute toxicity (2) (oral administration); assay type: in vivo; settings: in vivo; rat, oral, 7 days
Description: as §1

[4] = system: adjuvant arthritis; test: Inhibition to adjuvant arthritis (oral administration); assay type: in vivo, rat (Sprague-Dawley strain); settings: for Increase in body weight / Weight of the organs: Adrenal glands / Weight of the organs: Spleen / Weight of the organs: Thymus: once a day for 7 days
Description: Inhibition to adjuvant arthritis.
According to a method conforming to Fujihira et al [Oyo Yakuri, 5, 169, (1971)], liquid paraffin suspension of Mycobacterium butiricum (hereinafter abbreviated as adjuvant) was injected subcutaneously to right hind paws of male rats (Spraque-Dawley strain) weighing 150 to 170 g in an amount of 0.3 mg/0.05 ml/rat. 14 Days after adjuvant injection, the rats, paws of which swelled to a similar degree, were selected and they were separated into groups. From the 15th day after adjuvant injection, each test compound suspended in 0.3% CMC-Na solution was orally administered once a day for 7 days to the 7 rats in each group in the dose shown in the following table 2.
The 16th, 19th and 22nd days after adjuvant injection the volume of left hand paws (i.e. paws not treated with the adjuvant) of the rats and their body weight were measured. Inhibition percent to the arthritis (edema) is calculated according to the same equation as that used in Experiment 1, and the value of ED40 is calculated on the basis of the inhibition percent. Then the rats were sacrificed with ether and the weight of their thymus, adrenal glands and spleen was determined.

[5] = system: gross behaviour of the rats; test: Gross behaviour (2) (oral administration); settings: oral, 500, 1000, 2000 and 4000 mg/Kg, 4 hours
Description: In 0.3% CMC-Na solution was suspended 2-oxo-3-[4-(1-oxo-2-isoindolinyl)phenyl]butanamide in at a concentration of 20%. The 20% CMC-Na suspension was administered orally to 3 male rats in each group (Sprague-Dawley strain) weighing 150 to 200 g. The dosage of the compound were 500, 1000, 2000 and 4000 mg/Kg. […] To rats of a control group was administered orally only 0.3% CMC-Na solution.

[6] = system: writhing syndrome due to acetic acid; test: Analgesic activity, stretching method (oral administration); assay type: in vivo, mouse (ddY-strain)
Description: The experiment was carried out according to a method conforming to Koster R. et al [Federation Proceedings 18, 412, (1960)]. […] 30 Minutes after administration of the test compound, 0.6% acetic acid aqueous solution was injected intraperitoneally to the mice in an amount of 0.1 ml per 10 g of body weight of the mouse, and then frequency of writhing syndrome due to acetic acid was counted for 20 minutes. Inhibition percent to the writhing syndrome was calculated in comparison with frequency of writhing syndrome counted on mice of a control group, to which only 1% gum arabic solution was orally administered.

[7] = oral, 500, 1000, 2000 and 4000 mg/Kg, 7 days

CC(C(=O)C(N)=O)c1ccc(N2Cc3ccccc3C2=O)cc1 (centres unmarked) [2-oxo-3-[4-(1-oxo-2-isoindolinyl)phenyl]butanamide]
Mean number of gastric lesion ([1]; 50 mg/Kg oral): 0
Mean number of gastric lesion ([1]; 100 mg/Kg oral): 0
Mean number of gastric lesion ([1]; 200 mg/Kg oral): 0.3
Mean number of gastric lesion ([1]; 400 mg/Kg oral): 1.6
Mean number of gastric lesion ([1]; 800 mg/Kg oral): 0.4
Macroscopic observation of organs in head, thorax and abdominal cavity ([2]; after 7 days): No abnormality was observed
Abnormal behaviour [2, 7]: not observed
Death [2, 7]: not observed
Inhibition to increase of body weight [2, 7]: not observed
LD50 at 168 h [3]: > 4000 mg/kg
Inhibition to adjuvant arthritis ([4]; 25 mg/Kg oral, 1st day): 24.0%
Inhibition to adjuvant arthritis ([4]; 25 mg/Kg oral, 4th day): 25.1%
Inhibition to adjuvant arthritis ([4]; 25 mg/Kg oral, 7th day): 35.2%
Increase in body weight ([4]; 25 mg/Kg oral): 28.4 g
Weight of the organs: Adrenal glands ([4]; 25 mg/Kg oral): 12.5 ± 1.3 mg/100g of body weight
Weight of the organs: Spleen ([4]; 25 mg/Kg oral): 441.1 ± 39.6 mg/100g of body weight
Weight of the organs: Thymus ([4]; 25 mg/Kg oral): 146.0 ± 7.3 mg/100g of body weight
Inhibition to adjuvant arthritis ([4]; 100 mg/Kg oral, 1st day): 32.7%
Inhibition to adjuvant arthritis ([4]; 100 mg/Kg oral, 4th day): 34.5%
Inhibition to adjuvant arthritis ([4]; 100 mg/Kg oral, 7th day): 45.3%
Increase in body weight ([4]; 100 mg/Kg oral): 40.7 g
Weight of the organs: Adrenal glands ([4]; 100 mg/Kg oral): 11.5 ± 0.7 mg/100g of body weight
Weight of the organs: Spleen ([4]; 100 mg/Kg oral): 414.2 ± 28.8 mg/100g of body weight
Weight of the organs: Thymus ([4]; 100 mg/Kg oral): 147.2 ± 15.6 mg/100g of body weight
Abnormal behaviour (depression to spontaneous activity, loss of righting reflex, tremor, convulsion, abnormal gait, loss of pinna reflex, loss of corneal reflex, abnormality of respiration) [5]: not observed
Inhibition to writhing syndrome ([6]; 100 mg/Kg oral): 4%
Inhibition to writhing syndrome ([6]; 200 mg/Kg oral): 33%
Inhibition to writhing syndrome ([6]; 400 mg/Kg oral): 62%
Dose-response of inhibition to writhing syndrome ([6]; dose range of 100 to 400 mg/Kg): clear dose-response

Reference: patent US4166125A, “2-Oxo-phenylbutanoic acid derivatives” (Grelan Pharmaceutical Co., Ltd., priority 1977, dated 1979)
